What follows are compounds tested against T1, ROCKII or ROKα (Rattus norvegicus, UniProt Q62868) (assay: Determination of Rho kinase inhibition (33P-ATP, Streptavidin Flash Plate)). Settings: ATP 40 μM, activity denoted as pIC50 classes.
T1 construct: purchased Upstate 14-451
Assay type: biochemical
Protocol: Determination of Rho Kinase Inhibition
To measure Rho-kinase inhibition, IC50 values were determined according to the following protocol:
Buffer: 25 mM Tris pH7.5; 0.02% BSA; 5% Glycerol; 0.008% Triton X100; 2% DMSO, 1 mM DTT; 1 mM MgCl2; 0.5 μCi/well γ^33P ATP
Enzyme: ROCKII or ROKα) (Upstate, Catalog #14-451 Lot # 24880U) 0.1 ng/μl
Final concentration of ATP in reaction mixture 40 μM
Biotinylated substrate, diluted to 0.25 μM with buffer described above (without ATP) • 1. 10 μl Tris buffer (±Inhibitor) • 2. Add 30 μL of enzyme solution • 3. Start the reaction with 30 μL of mix substrate/ATP/ATP33 • 4. Incubate for 20 min at room temperature • 5. Stop reaction with 30 μL of 50 mM EDTA • 6. Transfer 50 μL of stopped solution to Streptavidin Flash Plate plus, Perkin Elmer, SMP 103A • 7. Incubate for 30 min at RT • 8. Wash 4 times with 300 μl of PBS/0.1% Tween 20 • 9. Radioactivity in the well was determined

T1 sequence (Q62868 11-552 limits assumed): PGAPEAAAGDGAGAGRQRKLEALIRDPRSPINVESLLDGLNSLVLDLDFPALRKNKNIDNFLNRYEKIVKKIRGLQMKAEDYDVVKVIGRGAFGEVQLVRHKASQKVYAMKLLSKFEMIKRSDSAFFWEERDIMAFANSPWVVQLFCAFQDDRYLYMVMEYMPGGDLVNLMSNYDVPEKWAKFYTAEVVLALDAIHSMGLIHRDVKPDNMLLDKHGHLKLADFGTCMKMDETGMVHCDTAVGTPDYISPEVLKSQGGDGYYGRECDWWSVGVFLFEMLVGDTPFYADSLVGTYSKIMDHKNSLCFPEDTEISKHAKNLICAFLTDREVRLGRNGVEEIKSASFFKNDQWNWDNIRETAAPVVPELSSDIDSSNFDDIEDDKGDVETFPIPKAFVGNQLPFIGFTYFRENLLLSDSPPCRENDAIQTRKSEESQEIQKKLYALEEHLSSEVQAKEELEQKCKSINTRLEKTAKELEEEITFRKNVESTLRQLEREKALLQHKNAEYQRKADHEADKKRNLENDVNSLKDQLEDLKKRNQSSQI

Compound | IC50
CC1(c2ccc(CNC3CCC(Oc4ccc5cnccc5c4)CC3)cc2)NC(=O)NC1=O.O=C(O)C(F)(F)F (mixture of isomers) [Example 38, 5-(4-{[4-(isoquinolin-6-yloxy)-cyclohexylamino]-methyl}-phenyl)-5-methyl-imidazolidine-2,4-dione] | +++++ (6.0 ≦ pIC50)
CC(C)CN(C)C1CCC(Oc2ccc3cnccc3c2)CC1.O=C(O)C(F)(F)F (mixture of isomers) [Example 45, Isobutyl-[4-(isoquinolin-6-yloxy)-cyclohexyl]-methyl-amine] | ++++ (5.0 ≦ pIC50 < 6.0)
CN(Cc1cnn(-c2ccc(F)cc2)c1)C1CCC(Oc2ccc3cnccc3c2)CC1.O=C(O)C(F)(F)F (mixture of isomers) [Example 52, [1-(4-Fluoro-phenyl)-1H-pyrazol-4-ylmethyl]-[4-(isoquinolin-6-yloxy)-cyclohexyl]-methyl-amine] | ++++ (5.0 ≦ pIC50 < 6.0)
O=C(O)C(F)(F)F.c1ccc2c(CNC3CCC(Oc4ccc5cnccc5c4)CC3)cccc2c1 (mixture of isomers) [Example 54, [4-(Isoquinolin-6-yloxy)-cyclohexyl]-naphthalen-1-ylmethyl-amine] | ++++ (5.0 ≦ pIC50 < 6.0)
O=C(O)C(F)(F)F.c1csc(-c2nc(CNC3CCC(Oc4ccc5cnccc5c4)CC3)cs2)c1 (mixture of isomers) [Example 58, [4-(Isoquinolin-6-yloxy)-cyclohexyl]-(2-thiophen-2-yl-thiazol-4-ylmethyl)-amine] | ++++ (5.0 ≦ pIC50 < 6.0)
N[C@H]1CC[C@@H](Oc2ccc3cnccc3c2Cl)CC1 [Example 13, cis-4-(5-Chloro-isoquinolin-6-yloxy)-cyclohexylamine] | +++++ (6.0 ≦ pIC50)
N[C@H]1CC[C@@H](Oc2ccc3cncc(Cl)c3c2)CC1 [Example 14, cis-4-(4-Chloro-isoquinolin-6-yloxy)-cyclohexylamine] | +++++ (6.0 ≦ pIC50)
N[C@H]1CC[C@@H](Oc2ccc3cnccc3c2Br)CC1 [Example 19, cis-4-(5-Bromo-isoquinolin-6-yloxy)-cyclohexylamine] | +++++ (6.0 ≦ pIC50)
c1cncc(CN[C@H]2CC[C@@H](Oc3ccc4cnccc4c3)CC2)c1 [Example 23, cis-[4-(Isoquinolin-6-yloxy)-cyclohexyl]-pyridin-3-ylmethyl-amine] | +++++ (6.0 ≦ pIC50)
CC(C)N[C@H]1CC[C@@H](Oc2ccc3cnccc3c2)CC1 [Example 26, Isopropyl-cis-[4-(isoquinolin-6-yloxy)-cyclohexyl]-amine] | +++++ (6.0 ≦ pIC50)
CCOC(=O)N1CCN(C2CCC(Oc3ccc4cnccc4c3)CC2)CC1.O=C(O)C(F)(F)F (stereo not shown) [Example 44, 4-[4-(Isoquinolin-6-yloxy)-cyclohexyl]-piperazine-1-carboxylic acid ethyl ester] | ++++ (5.0 ≦ pIC50 < 6.0)
c1cc2cc(O[C@H]3CC[C@@H](NC4CC4)CC3)ccc2cn1 [Example 64, cis-Cyclopropyl-[4-(isoquinolin-6-yloxy)-cyclohexyl]-amine] | +++++ (6.0 ≦ pIC50)
CC(=O)Nc1ccc(CN[C@H]2CC[C@@H](Oc3ccc4cnccc4c3)CC2)cc1 [Example 72, cis-N-(4-{[4-(Isoquinolin-6-yloxy)-cyclohexylamino]-methyl}-phenyl)-acetamide] | +++++ (6.0 ≦ pIC50)
CN(C)/C=N/S(=O)(=O)c1cc(CN[C@H]2CC[C@@H](Oc3ccc4cnccc4c3Cl)CC2)ccc1Cl [Example 74, 2-Chloro-5-{cis-[4-(5-chloro-isoquinolin-6-yloxy)-cyclohexylamino]-methyl}-N-dimethylaminomethylene-benzenesulfonamide] | +++++ (6.0 ≦ pIC50)
Clc1c(OC2CCC(NC3CCCCC3)CC2)ccc2cnccc12 (stereo not shown) [Example 80, [4-(5-Chloro-isoquinolin-6-yloxy)-cyclohexyl]-cyclohexyl-amine] | +++++ (6.0 ≦ pIC50)
Cl.N[C@H]1CC[C@@H](Oc2ccc3cnccc3c2-c2ccsc2)CC1 [Example 87, cis-4-(5-Thiophen-3-yl-isoquinolin-6-yloxy)-cyclohexylamine] | +++++ (6.0 ≦ pIC50)
C=Cc1c(O[C@H]2CC[C@@H](N)CC2)ccc2cnccc12.Cl [Example 90, cis-4-(5-Vinyl-isoquinolin-6-yloxy)-cyclohexylamine] | +++++ (6.0 ≦ pIC50)
N[C@H]1CC[C@H](Oc2c(Cl)cc3cnccc3c2Cl)CC1 [Example 96, trans-4-(5,7-Dichloro-isoquinolin-6-yloxy)-cyclohexylamine] | +++++ (6.0 ≦ pIC50)
N[C@H]1CC[C@@H](Oc2ccc3cnc(Nc4cccc(Cl)c4)cc3c2)CC1 [Example 147, cis-[6-(4-Amino-cyclohexyloxy)-isoquinolin-3-yl]-(3-chloro-phenyl)-amine] | ++++ (5.0 ≦ pIC50 < 6.0)
COc1cc(Nc2cc3cc(O[C@H]4CC[C@@H](N)CC4)ccc3cn2)cc(OC)c1OC.Cl [Example 149, cis-[6-(4-Amino-cyclohexyloxy)-isoquinolin-3-yl]-(3,4,5-trimethoxy-phenyl)-amine] | +++++ (6.0 ≦ pIC50)
N[C@H]1CC[C@@H](Oc2ccc3cnc(Nc4cnccn4)cc3c2)CC1 [Example 150, cis-[6-(4-Amino-cyclohexyloxy)-isoquinolin-3-yl]-pyrazin-2-yl-amine] | ++++ (5.0 ≦ pIC50 < 6.0)
CCc1cncc2ccc(O[C@H]3CC[C@@H](N)CC3)cc12 [Example 156, cis-4-(4-Ethyl-isoquinolin-6-yloxy)-cyclohexylamine] | +++++ (6.0 ≦ pIC50)

Reference: patent publication US8710228B2, “Cycloalkylamine substituted isoquinoline derivatives” (Sanofi, priority 2006, dated 2014)
